For 16 molecules, Score results are on record in ChEMBL document CHEMBL1122215, “2-(Aminomethyl)phenols, a new class of saluretic agents. 5. Fused-ring analogues” (1983).

Molecules are shown by their SMILES.

The test system of experiment [1] is Canis familiaris. Nature of the experiment: Saluretic property in average of two anesthetized dogs after 5 mg/kg intravenous administration. The format is functional, Canis lupus familiaris.
The test system of experiment [2] is Rattus norvegicus. Nature of the experiment: Saluretic property after 80 mg/kg oral administration in rats. The format is functional.
Experiment [3] concerns Canis familiaris. Nature of the experiment: Saluretic property in average of one used conscious dog after 5 mg/kg intravenous administration. The format is functional, Canis lupus familiaris.
In experiment [4] the test system is Rattus norvegicus. Kind of experiment: Saluretic property after 50 mg/kg oral administration in rats. The format is functional.
Experiment [5] concerns Canis familiaris. Kind of experiment: Saluretic property in average of two conscious dogs after 5 mg/kg intravenous administration. The format is functional, Canis lupus familiaris.
In experiment [6] the test system is Canis familiaris. Kind of experiment: Saluretic property in average of single anesthetized dogs after 5 mg/kg intravenous administration. The format is functional, Canis lupus familiaris.
Experiment [7] has as its system Canis familiaris. Nature of the experiment: Saluretic property in average of three anesthetized dogs after 5 mg/kg intravenous administration. The format is functional, Canis lupus familiaris.
Experiment [8] has as its system Canis familiaris. Kind of experiment: Saluretic property in average of two anesthetized dogs after 5 mg/kg iv administration. The format is functional, Canis lupus familiaris.
In experiment [9] the test system is Canis familiaris. Kind of experiment: Saluretic property in average of two anesthetized dogs after 1 mg/kg intravenous administration. The format is functional, Canis lupus familiaris.

For the molecule `Cl.Cl.NCc1c(O)ccc2cccnc12`, the Score with Canis familiaris [1] and with Rattus norvegicus [2] was 0 throughout.
Regarding `Cl.Cl.NCc1c(O)ccc2ncccc12`, the results for the Score in the experiment with Canis familiaris [3] and in the experiment with Rattus norvegicus [4] were 1 and 0, respectively.
Turning to `Cl.Cl.Cl.NCc1cc(Cl)c2cccnc2c1O`, the Score in the experiment on Canis familiaris [5] was 1.
Turning to `CC1Nc2ccc(O)c(CN)c2S1.Cl.Cl` (centres undefined), the Score with Canis familiaris [1] and with Rattus norvegicus [4] was 0 each time.
As for `Cl.Cl.NCc1ccc2cnccc2c1O`, the Score in the experiment on Canis familiaris [6] stood at 1; in the experiment with Rattus norvegicus [4], 0.
As for `Cl.NCc1c(O)ccc2nccnc12`, the figures for the Score in the experiment on Canis familiaris [7] and with Rattus norvegicus [4] were 1 and 0, respectively.
`Cl.NCc1cc(Cl)c2ccccc2c1O`: the Score is reported as 6 with Canis familiaris [1] and 2 in the experiment with Rattus norvegicus [4].
For `Cc1cc(C)c2c(c1O)C(N)CC2.Cl` (centres undefined), in that order: 0 and 0.
Take `Cc1cc(=O)oc2ccc(O)c(CN)c12.Cl`: the Score with Canis familiaris [8] and in the experiment on Rattus norvegicus [4] was 0 each time.
In turn, `Cl.NCc1c(O)ccc2ccccc12` registered a Score in the experiment with Canis familiaris [1] of 1.
On to `Cc1c(O)c(CN)c(C)c2c1CCCC2.Cl`, for which the Score in the experiment on Canis familiaris [5] is 4; with Rattus norvegicus [4], 5.
For `Cl.NC1CCc2c(Cl)ccc(O)c21` (centres undefined), the Score in the experiment on Canis familiaris [1] stood at 1.
With `CCC1Cc2c(Cl)c(Cl)c(O)c(CN)c2C1.Cl` (centres undefined), the Score in the experiment with Canis familiaris [1] and in the experiment on Rattus norvegicus [4] was 0 throughout.
Regarding `NCc1ccccc1O` [2-(AMINOMETHYL)PHENOL], the Score in the experiment on Canis familiaris [8] and in the experiment with Rattus norvegicus [4] was 0 throughout.
On to `NS(=O)(=O)c1cc(C(=O)O)c(NCc2ccco2)cc1Cl` [FUROSEMIDE], for which the Score is reported as 6 in the experiment with Canis familiaris [9] and 3 with Rattus norvegicus [4].
Take `NS(=O)(=O)c1cc2c(cc1Cl)NCNS2(=O)=O` [HYDROCHLOROTHIAZIDE]: the Score in the experiment on Canis familiaris [7] is on record as 1; in the experiment with Rattus norvegicus [4] it was 2.
